# Measured values: PubChem BioAssay AID342 (DTP/NCI, 2004)
# Where “and” joins values, the source holds several entries; their conditions need not be identical. Equal values may be shown once.
# System: Swiss mice, Sarcoma 180 sc, mean tumor weight T/C
# Experiment: NCI In Vivo Anticancer Drug Screen. Data for tumor model Sarcoma 180 (subcutaneous) in Swiss mice
# Settings: endpoint: mean tumor weight, higher = larger tumour
# How it was run: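 Tumor-bearing mice, transplantable tumor; readout survival or tumor size; result = T/C, treated vs vehicle control.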
# [1] = dose: 111.0 mg/kg/injection, schedule: Q01DX007 (ip), vehicle: other
# [2] = dose: 250.0 mg/kg/injection, schedule: Q01DX007 (ip), vehicle: other
# [3] = dose: 125.0 mg/kg/injection, schedule: Q01DX007 (ip), vehicle: carboxymethylcellulose (CMC)
structure (smiles),measurement,setting,value
N#Cc1ccc(S(N)(=O)=O)cc1,T/C,"dose: 30.0 mg/kg/injection, schedule: Q01DX007 (ip), vehicle: alkali diluted with saline",76 % of control
same,T/C,"dose: 33.0 mg/kg/injection, schedule: Q01DX007 (ip), vehicle: other",70 % of control
same,T/C,"dose: 44.0 mg/kg/injection, schedule: Q01DX007 (ip), vehicle: alkali diluted with saline",71 % of control
same,T/C,"dose: 49.0 mg/kg/injection, schedule: Q01DX007 (ip), vehicle: other",68 % of control
same,T/C,"dose: 66.0 mg/kg/injection, schedule: Q01DX007 (ip), vehicle: alkali diluted with saline",54 % of control
same,T/C,"dose: 74.0 mg/kg/injection, schedule: Q01DX007 (ip), vehicle: other",59 % of control
same,T/C,"dose: 100.0 mg/kg/injection, schedule: Q01DX007 (ip), vehicle: alkali diluted with saline",39 % of control
same,T/C,[1],45 % of control and 60 % of control
same,T/C,"dose: 166.0 mg/kg/injection, schedule: Q01DX007 (ip), vehicle: other",34 % of control
same,T/C,[2],13 % of control
COc1cccc2c1C(=O)c1c(O)c3c(c(O)c1C2=O)C[C@@](O)(C(C)=O)C[C@@H]3OC1CC(N)C(O)C(C)O1 (some centres not stated),T/C,"dose: 1.0 mg/kg/injection, schedule: Q01DX007 (sc), vehicle: steriod suspending solution",86 % of control
same,T/C,"dose: 5.0 mg/kg/injection, schedule: Q01DX007 (sc), vehicle: steriod suspending solution",54 % of control and 42 % of control
CN(/N=N/N(C)c1ccccc1)c1ccccc1,T/C,"dose: 7.8 mg/kg/injection, schedule: Q01DX007 (ip), vehicle: carboxymethylcellulose (CMC)",72 % of control
same,T/C,"dose: 15.6 mg/kg/injection, schedule: Q01DX007 (ip), vehicle: carboxymethylcellulose (CMC)",62 % of control
same,T/C,"dose: 31.3 mg/kg/injection, schedule: Q01DX007 (ip), vehicle: carboxymethylcellulose (CMC)",75 % of control
same,T/C,"dose: 62.5 mg/kg/injection, schedule: Q01DX007 (ip), vehicle: carboxymethylcellulose (CMC)",49 % of control and 74 % of control
same,T/C,[3],37 % of control
CN(CCO)/N=N/c1nc[nH]c1C(N)=O,T/C,[3],73 % of control
same,T/C,"dose: 250.0 mg/kg/injection, schedule: Q01DX007 (ip), vehicle: carboxymethylcellulose (CMC)",78 % of control
CO[C@H]1CC[C@@]2(C)[C@@H](CC[C@H]3[C@@H]4C[C@H](O)C[C@@]4(C)CC[C@@H]32)C1,T/C,"dose: 0.01 mg/kg/injection, schedule: Q#A X014 (sc), vehicle: olive oil, sesame oil, peanut oil",121 % of control
same,T/C,"dose: 0.05 mg/kg/injection, schedule: Q#A X014 (sc), vehicle: olive oil, sesame oil, peanut oil",72 % of control
same,T/C,"dose: 0.25 mg/kg/injection, schedule: Q#A X014 (sc), vehicle: olive oil, sesame oil, peanut oil",112 % of control
same,T/C,"dose: 50.0 mg/kg/injection, schedule: Q#A X014 (ip), vehicle: distilled water + alcohol",95 % of control
Clc1[nH]nc2ccccc12,T/C,"dose: 42.0 mg/kg/injection, schedule: Q#A X014 (ip), vehicle: methylcellulose (MC)",62 % of control and 85 % of control (2×)
CC(=O)Nc1c(Cl)c(Cl)c2c(c1Cl)Cc1cc(F)ccc1-2,T/C,"dose: 62.5 mg/kg/injection, schedule: Q01DX007 (ip), vehicle: saline",78 % of control
same,T/C,[1],24 % of control
same,T/C,"dose: 111.0 mg/kg/injection, schedule: Q#A X014 (ip), vehicle: saline",31 % of control and 34 % of control
same,T/C,"dose: 125.0 mg/kg/injection, schedule: Q01DX007 (ip), vehicle: saline",81 % of control
same,T/C,"dose: 166.5 mg/kg/injection, schedule: Q#A X014 (ip), vehicle: saline",28 % of control and 31 % of control
same,T/C,"dose: 250.0 mg/kg/injection, schedule: Q#A X014 (ip), vehicle: saline",18 % of control and 35 % of control
same,T/C,"dose: 333.0 mg/kg/injection, schedule: Q01DX007 (ip), vehicle: other",36 % of control
same,T/C,"dose: 375.0 mg/kg/injection, schedule: Q#A X014 (ip), vehicle: saline",21 % of control
same,T/C,"dose: 500.0 mg/kg/injection, schedule: Q01DX007 (ip), vehicle: other",39 % of control
same,T/C,"dose: 750.0 mg/kg/injection, schedule: Q01DX007 (ip), vehicle: other",32 % of control
Oc1ccccc1C(Nc1nc2ccccc2s1)c1ccc2cccnc2c1O (configuration not stated),T/C,"dose: 62.0 mg/kg/injection, schedule: Q01DX007 (ip), vehicle: other",94 % of control
same,T/C,"dose: 125.0 mg/kg/injection, schedule: Q01DX007 (ip), vehicle: other",97 % of control
same,T/C,[2],46 % of control
